Read-outs that look alike come from different tables or passages of the source.
Key:
[1] = read-out: Cell viability assay IC50; CTG on Day 10; cell line not given (method: DLD1 and DLD1^-/- cells)
[2] = target: T1, helicase domain of the Pol θ protein (Homo sapiens, UniProt O75417); assay: Biochemical Activity Assay (ADP Glo Assay) of Pol θ inhibitor, ATPase activity
T1 construct: The helicase domain of the Pol θ protein was purified from insect protein expression system; made in house; host or cells: insect protein expression system

[3] = cells; conditions: Homo sapiens, DLD-1, 240 h
[4] = ADP-Glo assay, ATPase activity of Pol θ helicase domain, ssDNA substrate, read-out: Biochemical assay IC50
[5] = ADP-Glo, ssDNA substrate, 60 min at room temperature, read-out: Biochemical assay IC50
[6] = read-out: Cell viability assay IC50 (nM), CTG assay, CellTiter Glo, read on Day 10, cell line not given
[7] = read-out: Cell viability assay IC50 (nM), CTG on Day 10, cell line not given (method: DLD1 and DLD1^-/- cells)
[8] = read-out: Cell viability assay IC50 (nM)

T1 sequence (O75417 102-554 limits assumed): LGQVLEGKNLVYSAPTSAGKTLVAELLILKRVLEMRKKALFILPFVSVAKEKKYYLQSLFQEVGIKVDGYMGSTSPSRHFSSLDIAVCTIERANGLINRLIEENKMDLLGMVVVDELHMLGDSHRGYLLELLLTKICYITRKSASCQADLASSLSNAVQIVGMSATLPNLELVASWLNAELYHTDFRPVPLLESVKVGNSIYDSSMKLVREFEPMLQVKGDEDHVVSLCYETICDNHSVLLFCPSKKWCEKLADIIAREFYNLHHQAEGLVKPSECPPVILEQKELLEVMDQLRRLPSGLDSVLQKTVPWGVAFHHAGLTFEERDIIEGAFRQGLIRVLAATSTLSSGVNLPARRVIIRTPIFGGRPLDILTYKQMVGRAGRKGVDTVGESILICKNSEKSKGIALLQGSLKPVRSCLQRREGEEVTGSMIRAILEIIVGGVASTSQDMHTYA

`COc1cnc(Cl)cc1-c1cc(C)ncc1C(=O)Nc1nc2c(s1)CN(C1CCC(O)CC1)CC2` (stereo not shown) [Example 42, 2'-chloro-N-(5-(4-hydroxycyclohexyl)-4,5,6,7-tetrahydrothiazol[5,4-c]pyridin-2-yl)-5'-m ethoxy-6-methyl-[4,4'-bipyridine]-3-carboxamide] showed an IC50 [1] of over 1000 nM, an IC50 [2, 4] of 200 nM and an IC50 [2, 5] of 200 to 500 nM.
In the case of `COc1cnc(Cl)cc1-c1cc(C)ncc1C(=O)Nc1nc2ccc(-c3ccn(C)n3)nc2s1` [Example 24], the IC50 [3, 6] is reported as 192 nM, the IC50 [3, 7] is reported as 100 to 500 nM and the IC50 [2, 4] is reported as 15.2 nM. For the same molecule, the IC50 [2, 5] was under 50 nM.
Molecule `COC(=O)c1cc(-c2c(C)cnn2C)cc2sc(NC(=O)c3cnc(C)cc3-c3cc(Cl)ncc3OC)nc12` [Example 162] has an IC50 [3, 6] of 233 nM and an IC50 [2, 4] of 63.1 nM.
`COc1cnc(Cl)c(F)c1-c1cc(C)ncc1C(=O)Nc1nc2cc(F)c(N3CCC(F)(F)CC3)nc2s1` [Example 143] showed an IC50 [3, 6] of 43 nM and an IC50 [2, 4] of 23.6 nM.
Work on `COc1cnc(C(F)F)cc1-c1cc(C)ncc1C(=O)Nc1nc2cnc(-c3c(C)nnn3C)c(F)c2s1` [Example 215, 2'-(difluoromethyl)-N-(6-(1,4-dimethyl-1H-1,2,3-triazol-5-yl)-7-fluorothiazolo[4,5-c]pyridin-2-yl)-5'-methoxy-6-methyl-[4,4'-bipyridine]-3-carboxamide] yielded an IC50 [3, 6] of 2.92 nM and an IC50 [2, 4] of 3.11 nM.
In the case of `COc1cnc(Cl)cc1-c1cc(C)ncc1C(=O)Nc1nc2ccc(N3CCC(O)CC3)cc2s1` [Example 102], the IC50 [3, 6] is reported as 178 nM, the IC50 [3, 7] is reported as under 100 nM and the IC50 [2, 4] is reported as 8.06 nM. The IC50 [2, 5] was under 50 nM.
For `COc1cnc(Cl)cc1-c1cc(C)ncc1C(=O)Nc1nc2ncc(C3(O)CCC4(CC3)COC4)cc2s1` [Example 88, 2'-chloro-N-(6-(7-hydroxy-2-oxaspiro[3.5]non-7-yl)thiazolo[4,5-b]pyridin-2-yl)-5'-methoxy-6-methyl-[4,4'-bipyridine]-3-carboxamide], the IC50 [3, 6] was 52.1 nM, the IC50 [3, 7] was under 100 nM and the IC50 [2, 4] was 1.15 nM. The IC50 [2, 5] was under 50 nM.
Work on `COc1cnc(Cl)cc1-c1cnccc1C(=O)Nc1nc2ccc(C3=CCC(O)CC3)nc2s1` (stereo not shown) [Example 4] yielded an IC50 [3, 6] of 736 nM, an IC50 [3, 7] of 500 to 1000 nM and an IC50 [2, 4] of 19.1 nM. It also gave an IC50 [2, 5] of under 50 nM.
For `COc1cnc(Cl)cc1-c1cc(C)ncc1C(=O)Nc1nc2cnc(N3CC[C@@H](O)C[C@H]3C)nc2s1` [Example 141], the IC50 [3, 6] was 21.5 nM and the IC50 [2, 4] was 8.23 nM.
`COc1cnc(Cl)cc1-c1cc(C)ncc1C(=O)Nc1nc2c(s1)CN(C(=O)c1ccccc1)CC2` [Example 191, N-(5-benzoyl-4.5.6,7-tetrahydrothiazolo[5.4]pyridin-2-yl)-2'-chloro-5'-methoxy-6-methyl-[4,4'-bipyridine]-3-carboxamide] gave an IC50 [3, 8] of 521 nM and an IC50 ([2]; Biochemical assay IC50 (nM), ADP-Glo assay, ATPase activity of Pol θ helicase domain, ssDNA substrate) of 29.3 nM.
`COc1cnc(Cl)cc1-c1cc(C)ncc1C(=O)Nc1nc2ccc(C3CCN(C)CC3)nc2s1` [Example 36] showed an IC50 [3, 6] of 584 nM, an IC50 [3, 7] of 500 to 1000 nM and an IC50 [2, 4] of 236 nM. The IC50 [2, 5] was 200 to 500 nM.
For `COc1cnc(Cl)cc1-c1cc(C)ncc1C(=O)Nc1nc2ncc(N3CCS(=O)(=O)CC3)cc2s1` [Example 50], the IC50 [3, 6] was 541 nM, the IC50 [3, 7] was 500 to 1000 nM and the IC50 [2, 4] was 8.39 nM. It also gave an IC50 [2, 5] of under 50 nM.
For `COc1cnc(Cl)cc1-c1cc(C)ncc1C(=O)Nc1nc2c(=O)[nH]c(-c3c(C)cnn3C)cc2s1` [Example 179, 2'-chloro-N-(6-(1,4-dimethyl-1H-parazol-5-yl)-4-oxo-4,5-dihydrothiazolo[4,5-c]pyridin-2-yl)-5'-methoxy-6-methyl-[4,4'-bipyridine]-3-carboxamide], the IC50 [3, 8] was 562 nM and the IC50 ([2]; Biochemical assay IC50 (nM)) was 2.43 nM.
Work on `COc1cnc(Cl)cc1-c1cc(C)ncc1C(=O)Nc1nc2ccc(N3CCC(C)(O)CC3)cc2s1` [Example 48] yielded an IC50 [3, 6] of 165 nM, an IC50 [3, 7] of 100 to 500 nM and an IC50 [2, 4] of 26.4 nM. It also gave an IC50 [2, 5] of under 50 nM.
`COc1cnc(Cl)cc1-c1cc(C)ncc1C(=O)Nc1nc2c(F)nc(N3CCC(O)CC3)cc2s1` [Example 123] showed an IC50 [3, 6] of 24.2 nM and an IC50 [2, 4] of 10.5 nM.
Molecule `COc1cnc(Cl)cc1-c1cc(C)ncc1C(=O)Nc1nc2cnc(-c3c(Cl)cnn3C)cc2s1` [Example 167] has an IC50 [3, 6] of 5.41 nM and an IC50 [2, 4] of 3.74 nM.
`COc1cnc(Cl)cc1-c1cc(C)ncc1C(=O)Nc1nc2ncc(-n3ccccc3=O)cc2s1` [Example 25] gave an IC50 [3, 6] of 138 nM, an IC50 [3, 7] of 100 to 500 nM and an IC50 [2, 4] of 3.94 nM. The IC50 [2, 5] was under 50 nM.
Molecule `COc1cnc(Cl)cc1-c1cc(C)ncc1C(=O)Nc1nc2cnc(N3CCC(O)CC3)nc2s1` [Example 52] has an IC50 [3, 6] of 20.7 nM, an IC50 [3, 7] of under 100 nM and an IC50 [2, 4] of 2.62 nM. For the same molecule, the IC50 [2, 5] was under 50 nM.
In the case of `COc1cnc(Cl)cc1-c1cc(C)ncc1C(=O)Nc1nc2ncc(NS(C)(=O)=O)cc2s1` [Example 63], the IC50 [3, 6] is reported as 1710 nM, the IC50 [3, 7] is reported as over 1000 nM and the IC50 [2, 4] is reported as 5.58 nM. The IC50 [2, 5] was under 50 nM.
Work on `COc1cnc(Cl)cc1-c1cc(C)ncc1C(=O)Nc1nc2nnc(-c3c(C)cnn3C)cc2s1` [Example 159] yielded an IC50 [3, 6] of 1170 nM and an IC50 [2, 4] of 2.75 nM.
For `COc1cnc(C(F)F)cc1-c1cc(C)ncc1C(=O)Nc1nc2cnc(-c3c(C)nnn3C3CC3)cc2s1` [Example 213, N-(6-(1-cyclopropyl-4-methyl-1H-1,2,3-triazol-5-yl)thiazolo[4,5-c]pyridin-2-yl)-2'-(difluoromethyl)-5'-methoxy-6-methyl-[4,4'-bipyridine]-3-carboxamide], the IC50 [3, 6] was 4.13 nM and the IC50 [2, 4] was 3.63 nM.
`COc1cnc(Cl)cc1-c1cc(C)ncc1C(=O)Nc1nc2cnc(-c3nnn(C)n3)cc2s1` [Example 209] showed an IC50 [3, 6] of 6.82 nM and an IC50 [2, 4] of 1.93 nM.
Molecule `COc1cnc(Cl)cc1-c1cc(N2CCN(C)C3(CC3)C2=O)ncc1C(=O)Nc1nc2cnc(-c3c(C)nnn3C)cc2s1` [Example 196, 2'-chloro-N-(6-(1,4-dimethyl-1H-1,2,3-triazol-5-yl)thiazolo[4,5-c]pyridin-2-yl)-5'-methoxy-6-(4-methyl-8-oxo-4,7-diazaspiro[2.5]oct-7-yl)-[4,4'-bipyridine]-3-carboxamide] has an IC50 [3, 6] of 3.83 nM and an IC50 [2, 4] of 11.7 nM.
With `COc1cnc(Cl)cc1-c1cc(C)ncc1C(=O)Nc1nc2ncc(N3CCCC(O)CC3)cc2s1` (stereo not shown) [Example 64] the IC50 [3, 6] was 681 nM, the IC50 [3, 7] was 500 to 1000 nM and the IC50 [2, 4] was 25.4 nM. The IC50 [2, 5] was under 50 nM.
Molecule `COc1cnc(Cl)cc1-c1cc(C)ncc1C(=O)Nc1nc2cnc(-c3ncco3)cc2s1` [Example 205, 2'-chloro-5'-methoxy-6-methyl-N-(6-(oxazol-2-yl)thiazolo[4,5-c]pyridin-2-yl)-[4,4'-bipyridine]-3-carboxamide] has an IC50 [3, 6] of 20 nM and an IC50 [2, 4] of 5.24 nM.
`[2H]COc1cnc(Cl)cc1-c1cc(C)ncc1C(=O)Nc1nc2cnc(C3=CCC(O)CC3)cc2s1` (stereo not shown) [Example 108, 2'-chloro-N-(6-(4-hydroxycyclohex-1-en-1-yl)thiazolo[4,5-c]pyridin-2-yl)-5'-deuteromet hoxy-6-methyl-[4,4'-bipyridine]-3-carboxamide] gave an IC50 [3, 6] of 8.79 nM, an IC50 [3, 7] of under 100 nM and an IC50 [2, 4] of 1.88 nM. It also gave an IC50 [2, 5] of under 50 nM.
For `COc1cnc(Cl)cc1-c1cc(C)ncc1C(=O)Nc1nc2ccc(N3CC[C@H](O)C[C@H]3C)nc2s1` [Example 136], the IC50 [3, 6] was 121 nM and the IC50 [2, 4] was 25.8 nM.
With `COc1cccc(F)c1-c1cc(C)ncc1C(=O)Nc1nc2ccc([C@H]3CC[C@@H](O)CC3)nc2s1` [Example 31] the IC50 [3, 8] was over 1000 nM, the IC50 [2, 4] was 66.4 nM and the IC50 [2, 5] was 50 to 200 nM.
`COc1cnc(Cl)cc1-c1cc(C)ncc1C(=O)Nc1nc2ncc(C(=O)N3CCC(O)CC3)cc2s1` [Example 96, 2'-chloro-N-(6-(4-hydroxypiperidin-1-carbonyl)thiazolo[4,5-b]pyridin-2-yl)-5'-methoxy-6-methyl-[4,4'-bipyridine]-3-carboxamide] gave an IC50 [3, 6] of 7640 nM, an IC50 [3, 7] of over 1000 nM and an IC50 [2, 4] of 5.58 nM. The IC50 [2, 5] was under 50 nM.
Work on `COc1cnc(Cl)cc1-c1cc(C)ncc1C(=O)Nc1nc2ccc(N3CC[C@@H](O)C[C@H]3C)nc2s1` [Example 135] yielded an IC50 [3, 6] of 19.2 nM and an IC50 [2, 4] of 5.41 nM.
`COc1cnc(C(F)F)cc1-c1cc(C)ncc1C(=O)Nc1nc2cnc(N3CCC(O)CC3)nc2s1` [Example 198] gave an IC50 [3, 8] of 23.3 nM and an IC50 ([2]; read-out: Biochemical assay IC50) of 4.23 nM.
Work on `COc1cnc(Cl)cc1-c1cc(C)ncc1C(=O)Nc1nc2cnc(-c3nn(CCO)cc3C)cc2s1` [Example 221] yielded an IC50 [3, 6] of 1850 nM and an IC50 [2, 4] of 4.78 nM.
In the case of `COc1cnc(Cl)cc1-c1cc(C)ncc1C(=O)Nc1nc2cnc(-c3nnnn3C)cc2s1` [Example 208], the IC50 [3, 6] is reported as 141 nM and the IC50 [2, 4] is reported as 36.3 nM.
`[2H]C([2H])([2H])c1cnn(C)c1-c1cc2sc(NC(=O)c3cnc(C)cc3-c3cc(Cl)ncc3OC)nc2cn1` [Example 176, 2'-chloro-5'-methoxy-6-methyl-N-(6-(1-methyl-4-(methyl-d3)-1H-pyrazol-5-yl)thiazolo [4,5-c]pyridin-2-yl)-[4,4'-bipyridine]-3-carboxamide] gave an IC50 [3, 6] of 4.29 nM and an IC50 [2, 4] of 4.64 nM.
In the case of `COc1cnc(Cl)cc1-c1cc(C)ncc1C(=O)Nc1nc2ncc(N3CC4CC3CC4O)cc2s1` (stereo not shown) [Example 62], the IC50 [3, 6] is reported as 631 nM, the IC50 [3, 7] is reported as 100 to 500 nM and the IC50 [2, 4] is reported as 16.9 nM. The IC50 [2, 5] was under 50 nM.
For `COc1cnc(Cl)cc1-c1cc(C)ncc1C(=O)Nc1nc2ccc(N3CCC=CC3=O)nc2s1` [Example 138], the IC50 [3, 6] was 26.1 nM and the IC50 [2, 4] was 7.58 nM.
In the case of `COc1cnc(Cl)c(F)c1-c1cc(C)ncc1C(=O)Nc1nc2cc(F)c(N3CCC(O)CC3)nc2s1` [Example 125], the IC50 [3, 6] is reported as 3.98 nM and the IC50 [2, 4] is reported as 10 nM.
Molecule `COc1cnc(Cl)cc1-c1cc(C)ncc1C(=O)Nc1nc2ccc(N3CCC(O)C(C)(C)C3)nc2s1` (stereo not shown) [Example 116, 2'-chloro-N-(5-(4-hydroxy-3,3-dimethylpiperidin-1-yl)thiazol[5,4-b]pyridin-2-yl)-5'-me thoxy-6-methyl-[4,4'-bipyridine]-3-carboxamide] has an IC50 [3, 8] of 36.9 nM and an IC50 ([2]; Biochemical assay IC50 (nM)) of 10.3 nM.

Source: patent publication EP4585599A1, “NITROGEN-CONTAINING FUSED RING COMPOUND, INTERMEDIATE THEREOF, PREPARATION METHOD THEREFOR AND USE THEREOF” (Hangzhou Synrx Therapeutics Biomedical Technology Co., Ltd., priority 2022, dated 2024)
